Our source for the Activity values is ChEMBL document CHEMBL1155663, “A new major triterpene saponin from the roots of Cucurbita foetidissima” (J Nat Prod, 2000).

The source made the active and inactive calls. No cut-off for these calls is given here.

In the experiment the test system is HT-29. Kind of experiment: Potentiation of cisplatin-induced cytotoxicity against human HT29 cells. Format: functional, cell-based.

Consider `C[C@@H]1O[C@@H](O[C@@H]2[C@@H](OC(=O)[C@]34CCC(C)(C)C[C@@H]3C3=CC[C@@H]5[C@@]6(C)CC[C@H](O[C@@H]7O[C@H](C(=O)O)[C@@H](O)[C@H](O)[C@H]7O)C(C)(C)[C@@H]6CC[C@@]5(C)[C@]3(C)C[C@H]4O)OC[C@@H](O)[C@H]2O)[C@H](O)[C@H](O[C@H]2OC[C@H](O)[C@@H](O[C@H]3O[C@@H](CO)[C@H](O)[C@@H](O)[C@@H]3O)[C@@H]2O)[C@H]1O[C@@H]1OC[C@@H](O)[C@H](O)[C@H]1O`, for which the outcome was inactive.
